Legend:
DIPG-7 (DMG) = assay: In vitro efficacy, dose response in DMG neurospheres DIPG-7; conditions: Homo sapiens
Description: (§1) Assessment of in vitro activity of the composition used in the methods of the present disclosure was undertaken in patient-derived Diffuse Midline Glioma (DMG) neurospheres.
(§2) In particular, activity of the composition against human DMG cells was compared to that of 5-FU, a combination of 5-FU and FA, or a media control.
(§3) The composition used in the methods of the present disclosure was tested at a 5-FU to FA (Leucovorin) ratio of 15:1 (termed ‘Deflexifol’), and compared to 5-FU as a single agent (‘5-FU’); FA (Leucovorin) as a single agent (‘Leucovorin’); or a combination of 5-FU and FA (Leucovorin) (‘5-FU+Leucovorin’).
(§4) The tested concentrations were selected with reference to the clinical maximum tolerated plasma concentration of 5-FU (530 μM), as detailed in Table 5.
(§5) Screening was conducted in a 96-well format, with N=4 curves, using: • three different DMG cell lines: P002306, DIPG-7 and RA055 • one ependymoma culture and • one set of healthy astrocytes (control model system).

P008480 (Ependymoma) = assay: In vitro efficacy, dose response in ependymoma culture
Description: as §3, §5

P002306 (DMG) = assay: In vitro efficacy, dose response in DMG neurospheres P002306
Description: as §1, §2, §3, §4, §5

P000302 (Healthy cells) = assay: In vitro dose response in healthy astrocytes (control model system)
Description: as §3, §5

RA055 (DMG) = assay: In vitro efficacy, dose response in DMG neurospheres RA055
Description: as §1, §2, §3, §4, §5

[1] = tested on: U-87-MG human glioblastoma cell line; assay: U-87-MG cell proliferation (Incucyte confluency); assay type: cell-based; conditions: 72 hours with drug, 5-FU concentration, read-out: IC50, inhibiting cell proliferation
Description: U-87-MG cells are maintained in DMEM (high glucose)+10% FCS
• 96-well 2D format (triplicate wells per drug concentration). • Cells seeded at 10,000 cells/well>24 hours incubation. • Drugs added 24 hours later and cells incubated a further 72 hours. • Cells imaged every 6 hours using Incucyte ZOOM for cell proliferation (confluency measurement) and evidence of cell death.

[2] = cited from earlier work

SMILES: O=c1[nH]cc(F)c(=O)[nH]1 [5-FU, 5-fluoro-2,4 (1H,3H)-pyrimidinedione]
- IC50 (DIPG-7 (DMG)): ~22.3 µM
- IC50 (P008480 (Ependymoma); Homo sapiens): > 500 µM
- AUC (dose response) (P008480 (Ependymoma); P008480 (Ependymoma)): AUC: 373.2
- IC50 (P002306 (DMG); Homo sapiens): ~1.9 µM
- AUC (dose response) (P002306 (DMG); P002306 (DMG)): AUC: 171.4
- IC50 (P000302 (Healthy cells); Homo sapiens, Astrocyte): ~500 µM
- AUC (dose response) (P000302 (Healthy cells); P000302 (Healthy cells)): AUC: 294.3
- IC50 (RA055 (DMG); Homo sapiens): ~200 µM
- AUC (dose response) (RA055 (DMG); RA055 (DMG)): AUC: 332.6
- IC50 [1]: 120 µM
- clinical maximum tolerated plasma concentration ([2]; human, in vivo): 530 µM
- human tolerability of i.v.b. administration ([2]; i.v.b.): approximately 500 mg/mg^2
